Reference: patent US5576339A, “Pyridyl substituted cyclopentadienes for the treatment of inflamation” (priority 1995, dated 1996)
pIC50: −log10 of the molar value.

What was measured:
COX I = test: Assay for COX I activity (PGE2 ELISA, recombinant enzyme); format: biochemical, human or murine; conditions: arachidonic acid (10 μM), pre-incubated 10-20 minutes, pH 8.0; read-out: COX I ID50
Description: (§1) A 2.0 kb fragment containing the coding region of either human or murine COX-I or human or murine COX-II was cloned into a BamH1 site of the baculovirus transfer vector pVL1393 (Invitrogen) to generate the baculovirus transfer vectors for COX-I and COX-II in a manner similar to the method of D. R. O'Reilly et al (Baculovirus Expression Vectors: A Laboratory Manual (1992)). Recombinant baculoviruses were isolated by transfecting 4 μg of baculovirus transfer vector DNA into SF9 insect cells (2×10e8) along with 200 ng of linearized baculovirus plasmid DNA by the calcium phosphate method. See M. D. Summers and G. E. Smith, A Manual of Methods for Baculovirus Vectors and Insect Cell Culture Procedures. Texas Agric. Exp. Station Bull. 1555 (1987). Recombinant viruses were purified by three rounds of plaque purification and high titer (10E7-10E8 pfu/ml) stocks of virus were prepared. For large scale production, SF9 insect cells were infected in 10 liter fermentors (0.5×10^6 /ml) with the recombinant baculovirus stock such that the multiplicity of infection was 0.1. […]
(§2) COX activity was assayed as PGE2 formed/μg protein/time using an ELISA to detect the prostaglandin released. […] The PGE2 formed was measured by standard ELISA technology (Cayman Chemical).

COX II = test: Assay for COX II activity (PGE2 ELISA, recombinant enzyme); format: biochemical, human or murine; conditions: arachidonic acid (10 μM), pre-incubated 10-20 minutes, pH 8.0; read-out: COX II ID50
Description: as §1, §2

COX II enzyme = conditions: in words, literature; cited from earlier work

| SMILES | pIC50 (COX I) | pIC50 (COX II) | inhibition of the COX II enzyme (COX II enzyme) |
| --- | --- | --- | --- |
| CC1(C)C=C(c2ccc(F)cc2)C(c2ccc(S(C)(=O)=O)cc2)=C1 [Example 1, 1-Methylsulfonyl-4-[1,1-dimethyl-4-(4-fluorophenyl)cyclopenta-2,4-dien-3-yl]benzene] | 5.43 | 7.30 |  |
| CS(=O)(=O)Nc1ccc([N+](=O)[O-])cc1OC1CCCCC1 [N-(2-cyclohexyloxy-4-nitrophenyl)methanesulfonamide] |  |  | inhibits the COX II enzyme |
| COc1ccc2cc(CC(=O)O)ccc2c1 [6-methoxy-2-napthylacetic acid] |  |  | selectively inhibit the COX II enzyme |
